Measurements published in patent US20240058464A1 (Fortis Therapeutics, Inc., priority 2021, published 2024).

What was measured:
[1] = test system: CD46 expression; experiment: CD46 expression by RNA-sequencing in paired tumor biopsies before and after therapy; details: paired biopsies; for CD46 expression, Post-Treatment Biopsy: RNA-seq log2-transformed counts;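 on all read-outs here: FFPE human tumor biopsies, exome-capture RNA-seq, reads aligned to GRCh37, counts normalized for GC content, length and depth, summed per gene, log2-transformed, samples paired before versus after therapy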
[2] = test system: CD46 expression; experiment: CD46 expression by RNA-sequencing in unpaired pre-treatment and post-treatment tumor biopsies; format: in vivo, human; details: for CD46 expression Post: post-treatment biopsies
[3] = Non-Small Cell Lung Cancer, Post minus Pre, unpaired biopsies, log2-transformed counts
[4] = Non-Small Cell Lung Cancer, post- vs pre-treatment unpaired biopsies
[5] = Non-Small Cell Lung Cancer, unpaired, RNA-seq log2-transformed normalized counts
[6] = Breast Cancer, Post minus Pre, unpaired biopsies, log2-transformed counts
[7] = Breast Cancer, post- vs pre-treatment unpaired biopsies
[8] = Breast Cancer, unpaired, RNA-seq log2-transformed normalized counts

CC(=O)O[C@H]1C(=O)[C@@]2(C)[C@H]([C@H](OC(=O)c3ccccc3)[C@]3(O)C[C@H](OC(=O)[C@H](O)[C@@H](NC(=O)c4ccccc4)c4ccccc4)C(C)=C1C3(C)C)[C@]1(OC(C)=O)CO[C@@H]1C[C@@H]2O [paclitaxel]
CD46 expression diff (post minus pre) ([1]; Breast Cancer): −0.09 | Percent Change in CD46 expression ([1]; Breast Cancer): −1.4% | CD46 expression, Post-Treatment Biopsy ([1]; Breast Cancer): 6.12 | CD46 expression diff (post minus pre) ([1]; Endometrial Cancer): 0.19 | Percent Change in CD46 expression ([1]; Endometrial Cancer): 3.2% | CD46 expression, Post-Treatment Biopsy ([1]; Endometrial Cancer): 6.01 | CD46 expression diff (post minus pre) ([1]; Esophageal Cancer): 0.05 | Percent Change in CD46 expression ([1]; Esophageal Cancer): 0.8% | CD46 expression, Post-Treatment Biopsy ([1]; Esophageal Cancer): 6.02 | CD46 expression diff (post minus pre) ([1]; Non-Small Cell Lung Cancer): −0.23 | Percent Change in CD46 expression ([1]; Non-Small Cell Lung Cancer): −3.7% | CD46 expression, Post-Treatment Biopsy ([1]; Non-Small Cell Lung Cancer): 5.89 | CD46 expression diff (post minus pre) ([1]; Ovarian Cancer): −0.04 | Percent Change in CD46 expression ([1]; Ovarian Cancer): −0.8% | CD46 expression, Post-Treatment Biopsy ([1]; Ovarian Cancer): 5.67 | CD46 expression diff ([2]; Breast Cancer, post minus pre, unpaired biopsies): −0.15 | CD46 expression Percentage change ([2]; Breast Cancer, post vs pre, unpaired biopsies): −2.4% | CD46 expression Post ([2]; Breast Cancer, log2-transformed RNA-seq counts): 6.04 | CD46 expression diff ([2]; Endometrial Cancer, Post minus Pre, unpaired biopsies, log2-transformed counts): 0.03 | CD46 expression Percentage change ([2]; Endometrial Cancer, post- vs pre-treatment unpaired biopsies): 0.6% | CD46 expression Post ([2]; Endometrial Cancer, unpaired, RNA-seq log2-transformed normalized counts): 5.85 | CD46 expression diff ([2]; Esophageal Cancer, Post minus Pre, unpaired biopsies, log2-transformed counts): −0.13 | CD46 expression Percentage change ([2]; Esophageal Cancer, post- vs pre-treatment unpaired biopsies): −2.1% | CD46 expression Post ([2]; Esophageal Cancer, unpaired, RNA-seq log2-transformed normalized counts): 5.79 | CD46 expression diff ([2]; Gastric Cancer, Post minus Pre, unpaired biopsies, log2-transformed counts): 0.04 | CD46 expression Percentage change ([2]; Gastric Cancer, post- vs pre-treatment unpaired biopsies): 0.7% | CD46 expression Post ([2]; Gastric Cancer, unpaired, RNA-seq log2-transformed normalized counts): 5.82 | CD46 expression diff ([2]; Head and Neck Squamous Cell Carcinoma, Post minus Pre, unpaired biopsies, log2-transformed counts): 0.13 | CD46 expression Percentage change ([2]; Head and Neck Squamous Cell Carcinoma, post- vs pre-treatment unpaired biopsies): 2.4% | CD46 expression Post ([2]; Head and Neck Squamous Cell Carcinoma, unpaired, RNA-seq log2-transformed normalized counts): 5.68 | CD46 expression diff [2, 3]: −0.07 | CD46 expression Percentage change [2, 4]: −1.1% | CD46 expression Post [2, 5]: 6.00 | CD46 expression diff ([2]; Ovarian Cancer, Post minus Pre, unpaired biopsies, log2-transformed counts): −0.01 | CD46 expression Percentage change ([2]; Ovarian Cancer, post- vs pre-treatment unpaired biopsies): −0.1% | CD46 expression Post ([2]; Ovarian Cancer, unpaired, RNA-seq log2-transformed normalized counts): 5.73 | CD46 expression diff ([2]; Sarcoma, Post minus Pre, unpaired biopsies, log2-transformed counts): −0.09 | CD46 expression Percentage change ([2]; Sarcoma, post- vs pre-treatment unpaired biopsies): −1.7% | CD46 expression Post ([2]; Sarcoma, unpaired, RNA-seq log2-transformed normalized counts): 4.96

CC(=O)c1c(C)c2cnc(Nc3ccc(N4CCNCC4)cn3)nc2n(C2CCCC2)c1=O [palbociclib]
CD46 expression diff (post minus pre) ([1]; Breast Cancer): −0.17 | Percent Change in CD46 expression ([1]; Breast Cancer): −2.7% | CD46 expression, Post-Treatment Biopsy ([1]; Breast Cancer): 6.34 | CD46 expression diff [2, 6]: 0.01 | CD46 expression Percentage change [2, 7]: 0.2% | CD46 expression Post [2, 8]: 6.42

Nc1nc2[nH]cc(CCc3ccc(C(=O)N[C@@H](CCC(=O)O)C(=O)O)cc3)c2c(=O)[nH]1 [pemetrexed]
CD46 expression diff (post minus pre) ([1]; Non-Small Cell Lung Cancer): −0.20 | Percent Change in CD46 expression ([1]; Non-Small Cell Lung Cancer): −3.1% | CD46 expression, Post-Treatment Biopsy ([1]; Non-Small Cell Lung Cancer): 6.22 | CD46 expression diff [2, 3]: −0.11 | CD46 expression Percentage change [2, 4]: −1.8% | CD46 expression Post [2, 5]: 6.27

C[C@]12C=CC(=O)C=C1CC[C@@H]1[C@@H]2C(=O)C[C@@]2(C)[C@H]1CC[C@]2(O)C(=O)CO [prednisone]
CD46 expression diff (post minus pre) ([1]; Prostate Cancer): 0.13 | Percent Change in CD46 expression ([1]; Prostate Cancer): 2.3% | CD46 expression, Post-Treatment Biopsy ([1]; Prostate Cancer): 5.85 | CD46 expression diff [2, 3]: 0.02 | CD46 expression Percentage change [2, 4]: 0.3% | CD46 expression diff ([2]; Prostate Cancer, Post minus Pre, unpaired biopsies, log2-transformed counts): −0.10 | CD46 expression Percentage change ([2]; Prostate Cancer, post- vs pre-treatment unpaired biopsies): −1.7% | CD46 expression Post ([2]; Prostate Cancer, unpaired, RNA-seq log2-transformed normalized counts): 6.08

CNC(=O)c1cc(Oc2ccc(NC(=O)Nc3ccc(Cl)c(C(F)(F)F)c3)c(F)c2)ccn1 [regorafenib]
CD46 expression diff (post minus pre) ([1]; Colorectal Cancer): 0.25 | Percent Change in CD46 expression ([1]; Colorectal Cancer): 4.0% | CD46 expression, Post-Treatment Biopsy ([1]; Colorectal Cancer): 6.49 | CD46 expression diff ([2]; Colorectal Cancer, Post minus Pre, unpaired biopsies, log2-transformed counts): 0.19 | CD46 expression Percentage change ([2]; Colorectal Cancer, post- vs pre-treatment unpaired biopsies): 2.9% | CD46 expression Post ([2]; Colorectal Cancer, unpaired, RNA-seq log2-transformed normalized counts): 6.63

CC/C(=C(\c1ccccc1)c1ccc(OCCN(C)C)cc1)c1ccccc1 [tamoxifen]
CD46 expression diff (post minus pre) ([1]; Breast Cancer): 0.11 | Percent Change in CD46 expression ([1]; Breast Cancer): 1.7% | CD46 expression, Post-Treatment Biopsy ([1]; Breast Cancer): 6.32 | CD46 expression diff [2, 6]: 0.11 | CD46 expression Percentage change [2, 7]: 1.8% | CD46 expression Post [2, 8]: 6.38
